Measurements taken from ChEMBL document CHEMBL5346930, “Discovery of novel N-benzylarylamide-dithiocarbamate based derivatives as dual inhibitors of tubulin polymerization and LSD1 that inhibit gastric cancers” (Eur J Med Chem, 2023).
Calls of active or inactive are those of the source. The rule behind the calls is not given here.

How the values were obtained:
[1] = biological target: T1, Tubulin beta (Homo sapiens) (UniProt P68371+Q9H4B7+Q13509+P04350+Q3ZCM7+P07437+Q13885+Q9BVA1+Q9BUF5+A6NNZ2); experiment: Binding affinity to colchicine binding site of beta-tubulin in human MGC-803 cells assessed as inhibition of beta-tubulin alkylation by measuring disappearance of beta-tubulin-EBI adduct band pretreated for 2 hrs followed by EBI addition and measured after 2 hrs by Western blot analysis; assay type: cell-based; details: dose 0-10 µM, time 4.0 hrs
SGC-7901 [2] = experiment: Induction of cell cycle arrest in human SGC-7901 cells assessed as downregulation of CDC2 protein expression incubated for 48 hrs by Western blot analysis; assay type: functional, cell-based; details: dose 0-30 nmol/L
MGC-803 [3] = experiment: cells; details: Homo sapiens, MGC-803, 48 h
Description: Antiproliferative activity against human MGC-803 cells assessed as inhibition of cell growth incubated for 48 hrs by MTT assay

MCF7 = experiment: Antiproliferative activity against human MCF7 cells assessed as inhibition of cell growth incubated for 48 hrs by MTT assay; assay type: functional, cell-based; details: MCF7, 48 h
MGC-803 [4] = experiment: Induction of apoptosis in human MGC-803 cells assessed as activation of caspase-7 at 0 to 24 nmol/L incubated for 48 hrs by Western blot analysis; assay type: functional, cell-based; details: dose 0-24 nmol/L
Huh-7 = experiment: Antiproliferative activity against human Huh-7 cells assessed as inhibition of cell growth incubated for 48 hrs by MTT assay; assay type: functional, cell-based; details: Huh-7, 48 h
MGC-803 [5] = experiment: Inhibition of cell migration in human MGC-803 cells assessed as reduction in number of cells crossing membrane at 4 nmol/L measured after 48 hrs by transwell assay; assay type: functional, cell-based
MGC-803 [6] = experiment: Induction of morphological changes in human MGC-803 cells assessed as appearance of broken nucleus at 24 nM incubated for 48 hrs by DAPI staining based analysis; assay type: functional, cell-based
Tubulin = experiment: Inhibition of tubulin polymerization (unknown origin) assessed as reduction in fluorescence intensity measured every 60 secs for 1 hr by microplate reader analysis; assay type: protein-complex assay, Homo sapiens
TE-1 = experiment: Antiproliferative activity against human TE-1 cells assessed as inhibition of cell growth incubated for 48 hrs by MTT assay; assay type: functional, cell-based; details: TE-1, 48 h
MGC-803 [7] = experiment: Induction of morphological changes in human MGC-803 cells assessed as varied size of nucleus at 0 to 24 nmol/L incubated for 48 hrs by DAPI staining based analysis; assay type: functional, cell-based; details: dose 0-24 nmol/L
[8] = Toxicity in BALB/c nude mouse xenografted with human MGC-803 cells assessed as reduction in body weight at 25 mg/kg/day, ip administered every day for 21 days; assay type: organism-based; details: in vivo, 504 h, time 21 day
SGC-7901 [9] = experiment: Induction of morphological changes in human SGC-7901 cells assessed as varied size of nucleus at 0 to 30 nmol/L incubated for 48 hrs by DAPI staining based analysis; assay type: functional, cell-based; details: dose 0-30 nmol/L
MGC-803 [10] = experiment: Induction of cell cycle arrest in human MGC-803 cells assessed as accumulation of cells at G2/M phase at 24 nmol/L incubated for 48 hrs (reference value: 33%); assay type: functional
SGC-7901 [11] = experiment: Induction of morphological changes in human SGC-7901 cells assessed as reduction in cell density at 0 to 30 nmol/L incubated for 48 hrs by bright field microscopic analysis; assay type: functional, cell-based; details: dose 0-30 nmol/L
SGC-7901 [12] = experiment: Induction of apoptosis in human SGC-7901 cells assessed as increase in cleaved PARP level at 0 to 30 nmol/L incubated for 48 hrs by Western blot analysis; assay type: functional, cell-based; details: dose 0-30 nmol/L
SGC-7901 [13] = experiment: Inhibition of cell migration in human SGC-7901 cells assessed as reduction in number of cells crossing membrane at 4 nmol/L measured after 48 hrs by transwell assay; assay type: functional, cell-based
SGC-7901 [14] = experiment: Induction of morphological changes in human SGC-7901 cells assessed as appearance of oblate and bright cells at 0 to 30 nmol/L incubated for 48 hrs by bright field microscopic analysis; assay type: functional, cell-based; details: dose 0-30 nmol/L
Tubulin (Homo sapiens) = Tubulin (Homo sapiens) (UniProt P68371+Q9H4B7+P0DPH7+P68366+Q13509+Q71U36+P04350+Q3ZCM7+P07437+P68363+Q9BQE3+Q6PEY2+Q13885+Q9BVA1+Q9BUF5); experiment: Inhibition of tubulin polymerization in human MGC-803 cells assessed as destruction of microtubule network incubated for 48 hrs by immunofluorescence staining based fluorescence microscopic analysis; assay type: cell-based; details: dose 0-24 nmol/L
A549 = experiment: Antiproliferative activity against human A549 cells assessed as inhibition of cell growth incubated for 48 hrs by MTT assay; assay type: functional, cell-based; details: A549, 48 h
MGC-803 [15] = experiment: Antiproliferative activity against human MGC-803 cells assessed as inhibition of cell growth at 10 to 30 nM by MTT assay; assay type: functional, cell-based; details: dose 10-30 nM, time 0-60 hrs, TDE = time-dependent effect
SGC-7901 [16] = experiment: Induction of apoptosis in human SGC-7901 cells assessed as increase in total apoptotic cells incubated for 48 hrs by Annexin-FITC/PI staining based flow cytometry analysis; assay type: functional, cell-based; details: dose 0-30 nmol/L
HCT-116 = experiment: cells; details: Homo sapiens, HCT-116, 48 h
Description: Antiproliferative activity against human HCT-116 cells assessed as inhibition of cell growth incubated for 48 hrs by MTT assay

SGC-7901 [17] = experiment: Induction of apoptosis in human SGC-7901 cells assessed as total apoptotic cells at 30 nmol/L incubated for 48 hrs by Annexin-FITC/PI staining based flow cytometry analysis (reference value: 5.9%); assay type: functional
MGC-803 [18] = experiment: Inhibition of cell migration in human MGC-803 cells assessed as reduction in rate of wound healing at 4 nmol/L measured after 0 to 48 hrs; assay type: functional, cell-based; details: time 0-48 hrs
[19] = biological target: T1, Tubulin beta (Homo sapiens); experiment: Binding affinity to colchicine binding site of beta-tubulin in human SGC-7901 cells assessed as inhibition of beta-tubulin alkylation by measuring disappearance of beta-tubulin-EBI adduct band pretreated for 2 hrs followed by EBI addition and measured after 2 hrs by Western blot analysis; assay type: cell-based; details: dose 0-10 µM, time 4.0 hrs
PC-3 = experiment: Antiproliferative activity against human PC-3 cells assessed as inhibition of cell growth incubated for 48 hrs by MTT assay; assay type: functional, cell-based; details: PC-3, 48 h
[20] = biological target: Lysine-specific histone demethylase 1A (Homo sapiens, UniProt O60341); experiment: Inhibition of LSD1 in human MGC-803 cells assessed as increase in H3K4me1 expression level at 0 to 24 nmol/L incubated for 48 hrs by Western blot analysis; assay type: cell-based; details: dose 0-24 nmol/L
MGC-803 [21] = experiment: Induction of apoptosis in human MGC-803 cells assessed as increase in cleaved PARP level at 0 to 24 nmol/L incubated for 48 hrs by Western blot analysis; assay type: functional, cell-based; details: dose 0-24 nmol/L
MGC-803 [22] = experiment: Antitumor activity against human MGC-803 cells xenografted in BALB/c nude mouse assessed as tumor growth inhibition at 25 mg/kg/day, ip administered every day for 21 days; assay type: functional, organism-based; details: time 21.0 day
SGC-7901 [23] = experiment: Induction of morphological changes in human SGC-7901 cells assessed as increase in proportion of dead cells at 0 to 30 nmol/L incubated for 48 hrs by calcein-AM/PI staining based analysis; assay type: functional, cell-based; details: dose 0-30 nmol/L
GES1 = experiment: Cytotoxicity against human GES1 cells assessed as reduction in cell viability at 0 to 30 nM incubated for 48 hrs by MTT assay; assay type: toxicity, cell-based; details: ges1, 48 h, 0.03 µM, dose 0-30 nM
SGC-7901 [24] = experiment: Induction of apoptosis in human SGC-7901 cells assessed as downregulation of Mcl-1 protein expression incubated for 48 hrs by Western blot analysis; assay type: functional, cell-based; details: dose 0-30 nmol/L
MGC-803 [25] = experiment: Induction of morphological changes in human MGC-803 cells assessed as appearance of oblate and bright cells at 0 to 24 nmol/L incubated for 48 hrs by bright field microscopic analysis; assay type: functional, cell-based; details: dose 0-24 nmol/L

Activity [1]: Dose-Dependent Effect
IC50 (MGC-803 [3]): 17 nM
IC50 (MCF7): 34.4 nM
IC50 (Huh-7): 47.9 nM
IC50 (Tubulin): 3060 nM
inhibition (Tubulin (Homo sapiens)): Dose-Dependent Effect
IC50 (A549): 254 nM
IC50 (HCT-116): 44 nM
Activity [19]: Dose-Dependent Effect
IC50 (PC-3): 44.6 nM
inhibition [20]: Active
SMILES: COc1ccc(CN(C(=O)CSC(=S)N2CCN(c3ccc(N)cc3)CC2)c2cc(OC)c(OC)c(OC)c2)cc1O
Activity (SGC-7901 [2]): Dose-Dependent Effect
Activity (MGC-803 [4]): Active
inhibition (MGC-803 [5]): Active
Activity (MGC-803 [6]): Active
IC50 (TE-1): 31.4 nM
Activity (MGC-803 [7]): Active
Activity [8]: Non-Toxic
Activity (SGC-7901 [9]): Active
Activity (MGC-803 [10]): 60%
Activity (SGC-7901 [11]): Active
Activity (SGC-7901 [12]): Active
inhibition (SGC-7901 [13]): Active
Activity (SGC-7901 [14]): Active
Activity (MGC-803 [15]): Tde
Activity (SGC-7901 [16]): Dose-Dependent Effect
Activity (SGC-7901 [17]): 75.4%
inhibition (MGC-803 [18]): Active
Activity (MGC-803 [21]): Active
Activity (MGC-803 [22]): Active
Activity (SGC-7901 [23]): Active
Activity (GES1): Non-Toxic
Activity (SGC-7901 [24]): Dose-Dependent Effect
Activity (MGC-803 [25]): Active
